Results reported in publication PMC6207642, “Real Time Monitoring of NADPH Concentrations in Corynebacterium glutamicum and Escherichia coli via the Genetically Encoded Sensor mBFP” (Frontiers in Microbiology, 2018).

Assays:
mBFP [1] = tested on: T1, mBFP; experiment: photometric benzaldehyde reductase assay, Michaelis-Menten fit; format: biochemical, uncultured bacterium; conditions: phosphate buffer pH 8, 30 °C
T1 construct: no tag mentioned; codon-optimized gene (amplicon 780 bp) used only in cells

mBFP [2] = molecular target: T1, mBFP; experiment: thermal shift (SYPRO Orange), concentration dependence; format: binding, uncultured bacterium; conditions: NADPH 0-10 mM; 40 to 70 °C in 0.5 °C steps

Kd (mBFP [2])	Km (mBFP [1]; 12.5 mM benzaldehyde, NADPH 0.5-180 μM)	Compound	Km (mBFP [1]; 200 μM NADPH, benzaldehyde 0.5-12.5 mM)
–	–	O=Cc1ccccc1 [benzaldehyde]	3100 µM
640 µM	41 µM	NC(=O)C1=CN([C@@H]2O[C@H](COP(=O)(O)OP(=O)(O)OC[C@H]3O[C@@H](n4cnc5c(N)ncnc54)[C@H](OP(=O)(O)O)[C@@H]3O)[C@@H](O)[C@H]2O)C=CC1 [NADPH]	–
